Data from patent US20190071416A1, “COMPOUNDS FOR TREATMENT OF CANCER AND EPIGENETICS” (Agency For Science, Technology and Research, priority 2015, published 2019).

Target: T1, SMYD3 (Homo sapiens, UniProt Q9H7B4)
T1 sequence (Q9H7B4 1-428): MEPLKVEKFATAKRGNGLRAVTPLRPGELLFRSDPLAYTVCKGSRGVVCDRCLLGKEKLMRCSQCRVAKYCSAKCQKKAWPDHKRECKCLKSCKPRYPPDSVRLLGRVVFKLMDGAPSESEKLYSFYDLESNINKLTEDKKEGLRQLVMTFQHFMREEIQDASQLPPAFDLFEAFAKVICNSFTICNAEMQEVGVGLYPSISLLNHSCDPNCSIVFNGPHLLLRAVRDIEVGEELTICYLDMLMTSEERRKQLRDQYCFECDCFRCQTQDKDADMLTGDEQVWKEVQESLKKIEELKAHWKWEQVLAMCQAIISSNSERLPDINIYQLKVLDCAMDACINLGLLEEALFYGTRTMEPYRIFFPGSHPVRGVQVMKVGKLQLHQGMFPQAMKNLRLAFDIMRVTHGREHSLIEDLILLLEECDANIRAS
Assay: SMYD3 biochemical assay (MTase-Glo, MAP3K2 peptide substrate)
Details: Table 3; MTase assay, MAP3K2 peptide substrate; read-out: IC50
In short: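 Methylation of MAP3K2 peptide (10 µM final) with SAM (1.0 µM final) by SMYD3, 30 min at room temperature. SAH formed was enzymatically converted to ATP and detected as luminescence with MTase-Glo reagents; IC50 by non-linear regression.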

SMILES | IC50 [nM]
C#Cc1ccc(C2CCc3c(nc4cc(C(=O)N5CCN(C(=O)OCCC)C[C@@H]5C)ccc4c3Cl)C2)nc1 (stereo partly drawn) [A150, Propyl (3S)-4-(9-chloro-6-(5-ethynylpyridin-2-yl)-5,6,7,8-tetrahydroacridine-3-carbonyl)-3-methylpiperazine-1-carboxylate] | 260
CCCOC(=O)N1CCN(C(=O)c2ccc3c(Cl)c4c(nc3c2)CC(c2cnn(C)c2)CC4)CC1 (stereo not drawn) [A151, Propyl 4-(9-chloro-6-(1-methyl-1H-pyrazol-4-yl)-5,6,7,8-tetrahydroacridine-3-carbonyl)piperazine-1-carboxylate] | 46
CCCOC(=O)N1CCN(C(=O)c2ccc3c(Cl)cc(-c4cccnc4)nc3c2)CC1 [B001, Propyl 4-(4-chloro-2-(pyridin-3-yl)quinoline-7-carbonyl)piperazine-1-carboxylate] | 2400
CCCOC(=O)N1CCN(C(=O)c2ccc3c(Cl)cc(-c4ccccc4)nc3c2)CC1 [B002, Propyl 4-(4-chloro-2-phenylquinoline-7-carbonyl)piperazine-1-carboxylate] | 410
CCCOC(=O)N1CCN(C(=O)c2ccc3c(Cl)c(CC)c(-c4ccccc4)nc3c2)CC1 [B004, Propyl 4-(4-chloro-3-ethyl-2-phenylquinoline-7-carbonyl)piperazine-1-carboxylate] | 1400
CCCOC(=O)N1CCN(C(=O)c2ccc3c(Cl)cc(-c4cncc(C)c4)nc3c2)CC1 [B005, Propyl 4-(4-chloro-2-(5-methylpyridin-3-yl)quinoline-7-carbonyl)piperazine-1-carboxylate] | 2500
CCCOC(=O)N1CCN(C(=O)c2ccc3c(Cl)c(C)c(-c4ccccc4)nc3c2)C[C@H]1C [B007, Propyl (R)-4-(4-chloro-3-methyl-2-phenylquinoline-7-carbonyl)-2-methylpiperazine-1-carboxylate] | 220
CCCOC(=O)N1CCN(C(=O)c2ccc3c(Cl)cc(-c4ccccn4)nc3c2)CC1 [B008, Propyl 4-(4-chloro-2-(pyridin-2-yl)quinoline-7-carbonyl)piperazine-1-carboxylate] | 1400
CCCOC(=O)N1CCN(C(=O)c2ccc3c(Cl)cc(Cc4ccccc4)nc3c2)CC1 [B009, Propyl 4-(2-benzyl-4-chloroquinoline-7-carbonyl)piperazine-1-carboxylate] | 3300
CCCOC(=O)N1CCN(C(=O)c2ccc3c(Cl)cc(-c4cccc(C)c4)nc3c2)CC1 [B011, Propyl 4-(4-chloro-2-(m-tolyl)quinoline-7-carbonyl)piperazine-1-carboxylate] | 770
CCCOC(=O)N1CCN(C(=O)c2ccc3c(Cl)cc(-c4ccccc4C)nc3c2)CC1 [B012, Propyl 4-(4-chloro-2-(o-tolyl)quinoline-7-carbonyl)piperazine-1-carboxylate] | 2900
CCCOC(=O)N1CCN(C(=O)c2ccc3c(Cl)cc(-c4ccccc4)nc3c2)[C@@H](C)C1 [B014, Propyl (S)-4-(4-chloro-2-phenylquinoline-7-carbonyl)-3-methylpiperazine-1-carboxylate] | 170
CCCOC(=O)N1CCN(C(=O)c2ccc3c(Cl)cc(-c4ccccc4)nc3c2)C[C@@H]1C [B018, Propyl (S)-4-(4-chloro-2-phenylquinoline-7-carbonyl)-2-methylpiperazine-1-carboxylate] | 130
CCCOC(=O)N1CCN(C(=O)c2ccc3c(Cl)c(C)c(-c4ccc(C)cc4)nc3c2)[C@@H](C)C1 [B024, Propyl (S)-4-(4-chloro-3-methyl-2-(p-tolyl)quinoline-7-carbonyl)-3-methylpiperazine-1-carboxylate] | 670
CCCOC(=O)N1CCN(C(=O)c2ccc3c(Cl)c(C)c(-c4ccc(C)cc4)nc3c2)CC1 [B025, Propyl 4-(4-chloro-3-methyl-2-(p-tolyl)quinoline-7-carbonyl)piperazine-1-carboxylate] | 670
CCCOC(=O)N1CCN(C(=O)c2ccc3c(Cl)c(C)c(-c4ccc(OC)cc4)nc3c2)[C@@H](C)C1 [B026, Propyl (S)-4-(4-chloro-2-(4-methoxyphenyl)-3-methylquinoline-7-carbonyl)-3-methylpiperazine-1-carboxylate] | 270
CCCOC(=O)N1CCN(C(=O)c2ccc3c(Cl)c(C)c(-c4ccccc4C)nc3c2)CC1 [B027, Propyl 4-(4-chloro-3-methyl-2-(o-tolyl)quinoline-7-carbonyl)piperazine-1-carboxylate] | 1200
CCCOC(=O)N1CCN(C(=O)c2ccc3c(Cl)c(C)c(-c4cccc(C)c4)nc3c2)CC1 [B028, Propyl 4-(4-chloro-3-methyl-2-(m-tolyl)quinoline-7-carbonyl)piperazine-1-carboxylate] | 1100
CCCOC(=O)N1CCN(C(=O)c2ccc3c(Cl)c(C)c(-c4cccc(OC)c4)nc3c2)CC1 [B029, Propyl 4-(4-chloro-2-(3-methoxyphenyl)-3-methylquinoline-7-carbonyl)piperazine-1-carboxylate] | 1400
CCCOC(=O)N1CCN(C(=O)c2ccc3c(Cl)c(C)c(-c4cccc(C#N)c4)nc3c2)CC1 [B032, Propyl 4-(4-chloro-2-(3-cyanophenyl)-3-methylquinoline-7-carbonyl)piperazine-1-carboxylate] | 5500

Continued by falling IC50, values first:

IC50 [nM] | SMILES
5800 | CCCOC(=O)N1CCN(C(=O)c2ccc3c(Cl)c(C)c(-c4cccc(F)c4F)nc3c2)CC1 [B030, Propyl 4-(4-chloro-2-(2,3-difluorophenyl)-3-methylquinoline-7-carbonyl)piperazine-1-carboxylate]
3200 | CCCOC(=O)N1CCN(C(=O)c2ccc3c(Cl)c(C)c(-c4ccc(C(F)(F)F)cc4)nc3c2)CC1 [B020, Propyl 4-(4-chloro-3-methyl-2-(4-(trifluoromethyl)phenyl)quinoline-7-carbonyl)piperazine-1-carboxylate]
1300 | CCCOC(=O)N1CCN(C(=O)c2ccc3c(Cl)c(C)c(-c4ccc(Cl)cc4)nc3c2)CC1 [B021, Propyl 4-(4-chloro-2-(4-chlorophenyl)-3-methylquinoline-7-carbonyl)piperazine-1-carboxylate]
1000 | CCCOC(=O)N1CCN(C(=O)c2ccc3c(Cl)c(C)c(-c4cccc(C(N)=O)c4)nc3c2)CC1 [B035, Propyl 4-(2-(3-carbamoylphenyl)-4-chloro-3-methylquinoline-7-carbonyl)piperazine-1-carboxylate]
950 | CCCOC(=O)N1CCN(C(=O)c2ccc3c(Cl)cc(-c4ccncc4)nc3c2)CC1 [B013, Propyl 4-(4-chloro-2-(pyridin-4-yl)quinoline-7-carbonyl)piperazine-1-carboxylate]
850 | CCCOC(=O)N1CCN(C(=O)c2ccc3c(Cl)c(C)c(-c4ccc(F)cc4)nc3c2)CC1 [B022, Propyl 4-(4-chloro-2-(4-fluorophenyl)-3-methylquinoline-7-carbonyl)piperazine-1-carboxylate]
690 | CCCOC(=O)N1CCN(C(=O)c2ccc3c(Cl)c(C)c(-c4ccc(C)cc4)nc3c2)[C@H](C)C1 [B023, Propyl (R)-4-(4-chloro-3-methyl-2-(p-tolyl)quinoline-7-carbonyl)-3-methylpiperazine-1-carboxylate]
500 | CCCOC(=O)N1CCN(C(=O)c2ccc3c(Cl)cc(-c4ccc(C)cc4)nc3c2)CC1 [B010]
300 | CCCOC(=O)N1CCN(C(=O)c2ccc3c(Cl)c(C)c(-c4ccccc4)nc3c2)[C@H](C)C1 [B017, Propyl (R)-4-(4-chloro-3-methyl-2-phenylquinoline-7-carbonyl)-3-methylpiperazine-1-carboxylate]
280 | CCCOC(=O)N1CCN(C(=O)c2ccc3c(Cl)c(C)c(-c4ccc(OC)cc4)nc3c2)CC1 [B031, Propyl 4-(4-chloro-2-(4-methoxyphenyl)-3-methylquinoline-7-carbonyl)piperazine-1-carboxylate]
210 | CCCOC(=O)N1CCN(C(=O)c2ccc3c(Cl)cc(-c4cccc(C(N)=O)c4)nc3c2)CC1 [B033, Propyl 4-(2-(3-carbamoylphenyl)-4-chloroquinoline-7-carbonyl)piperazine-1-carboxylate]
190 | CCCOC(=O)N1CCN(C(=O)c2ccc3c(Cl)cc(-c4ccccc4)nc3c2)[C@H](C)C1 [B015, Propyl (R)-4-(4-chloro-2-phenylquinoline-7-carbonyl)-3-methylpiperazine-1-carboxylate]
160 | CCCOC(=O)N1CCN(C(=O)c2ccc3c(Cl)c(C)c(-c4ccccc4)nc3c2)C[C@@H]1C [B006, Propyl (S)-4-(4-chloro-3-methyl-2-phenylquinoline-7-carbonyl)-2-methylpiperazine-1-carboxylate]
150 | CCCOC(=O)N1CCN(C(=O)c2ccc3c(Cl)c(C)c(-c4ccccc4)nc3c2)[C@@H](C)C1 [B016, Propyl (S)-4-(4-chloro-3-methyl-2-phenylquinoline-7-carbonyl)-3-methylpiperazine-1-carboxylate]
150 | CCCOC(=O)N1CCN(C(=O)c2ccc3c(Cl)c(C)c(-c4ccc(OC)cc4)nc3c2)C[C@H]1C [B036, Propyl (R)-4-(4-chloro-2-(4-methoxyphenyl)-3-methylquinoline-7-carbonyl)-2-methylpiperazine-1-carboxylate]
120 | CCCOC(=O)N1CCN(C(=O)c2ccc3c(Cl)c(C)c(-c4ccc(OC)cc4)nc3c2)C[C@@H]1C [B034, Propyl (S)-4-(4-chloro-2-(4-methoxyphenyl)-3-methylquinoline-7-carbonyl)-2-methylpiperazine-1-carboxylate]
